Test results as given in patent US20200002283A1, “PYRAZOLE DERIVATIVES HAVING ACTIVITY AGAINST PAIN” (priority 2016, published 2020).
Where two headings read alike, the source gives them in different places.

Key:
[1] = target: Human α2δ-1 subunit of Cav2.2 calcium channel (Homo sapiens, UniProt P54289); assay: Human α2δ-1 subunit of Cav2.2 calcium channel assay ([3H]-Gabapentin binding)
Method: Human α2δ-1 Subunit of Cav2.2 Calcium Channel Assay
Human α2δ-1 enriched membranes (2.5 μg) were incubated with 15 nM of radiolabeled [3H]-Gabapentin in assay buffer containing Hepes-KOH 10 mM, pH 7.4. NSB (non specific binding) was measured by adding 10 μM pregabalin. After 60 min incubation at 27° C., binding reaction was terminated by filtering through Multiscreen GF/C (Millipore) presoaked in 0.5% polyethyleneimine in Vacuum Manifold Station, followed by 3 washes with ice-cold filtration buffer containing 50 mM Tris-HCl, pH 7.4. Filter plates were dried at 60° C. for 1 hour and 30 μl of scintillation cocktail were added to each well before radioactivity reading. Readings were performed in a Trilux 1450 Microbeta radioactive counter (Perkin Elmer).

[2] = target: T1, human μ-opioid receptor (Homo sapiens, UniProt P35372); assay: Human μ-opioid receptor radioligand assay ([3H]-DAMGO); format: binding
T1 construct: expressed in transfected cells; host or cells: CHO-K1
Method: Human μ-Opioid Receptor Radioligand Assay
To investigate binding properties of test compounds to human μ-opioid receptor, transfected CHO-K1 cell membranes and [^3H]-DAMGO (Perkin Elmer, ES-542-C), as the radioligand, were used. The assay was carried out with 20 μg of membrane suspension, 1 nM of [^3H]-DAMGO in either absence or presence of either buffer or 10 μM Naloxone for total and non-specific binding, respectively. Binding buffer contained Tris-HCl 50 mM, MgCl2 5 mM at pH 7.4. Plates were incubated at 27° C. for 60 minutes. After the incubation period, the reaction mix was then transferred to MultiScreen HTS, FC plates (Millipore), filtered and plates were washed 3 times with ice-cold 10 mM Tris-HCL (pH 7.4). Filters were dried and counted at approximately 40% efficiency in a MicroBeta scintillation counter (Perkin-Elmer) using EcoScint liquid scintillation cocktail.

[3] = human α2δ-1 enriched membranes, 15 nM [3H]-Gabapentin, read-out: α2δ-1 binding
[4] = transfected CHO-K1 cell membranes, 1 nM [3H]-DAMGO, read-out: μ binding

T1 sequence (P35372 whole entry): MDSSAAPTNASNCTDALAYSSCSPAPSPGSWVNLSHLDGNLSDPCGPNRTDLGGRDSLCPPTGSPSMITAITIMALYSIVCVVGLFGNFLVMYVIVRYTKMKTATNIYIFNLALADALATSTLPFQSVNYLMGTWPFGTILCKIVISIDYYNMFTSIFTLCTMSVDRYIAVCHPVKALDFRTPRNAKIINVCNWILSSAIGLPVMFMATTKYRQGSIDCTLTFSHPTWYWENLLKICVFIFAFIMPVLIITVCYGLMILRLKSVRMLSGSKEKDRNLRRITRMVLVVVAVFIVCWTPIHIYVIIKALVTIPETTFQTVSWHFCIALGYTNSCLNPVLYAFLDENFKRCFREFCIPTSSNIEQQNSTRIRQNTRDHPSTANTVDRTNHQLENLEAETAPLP
Human α2δ-1 subunit of Cav2.2 calcium channel, sequence (P54289 25-1103): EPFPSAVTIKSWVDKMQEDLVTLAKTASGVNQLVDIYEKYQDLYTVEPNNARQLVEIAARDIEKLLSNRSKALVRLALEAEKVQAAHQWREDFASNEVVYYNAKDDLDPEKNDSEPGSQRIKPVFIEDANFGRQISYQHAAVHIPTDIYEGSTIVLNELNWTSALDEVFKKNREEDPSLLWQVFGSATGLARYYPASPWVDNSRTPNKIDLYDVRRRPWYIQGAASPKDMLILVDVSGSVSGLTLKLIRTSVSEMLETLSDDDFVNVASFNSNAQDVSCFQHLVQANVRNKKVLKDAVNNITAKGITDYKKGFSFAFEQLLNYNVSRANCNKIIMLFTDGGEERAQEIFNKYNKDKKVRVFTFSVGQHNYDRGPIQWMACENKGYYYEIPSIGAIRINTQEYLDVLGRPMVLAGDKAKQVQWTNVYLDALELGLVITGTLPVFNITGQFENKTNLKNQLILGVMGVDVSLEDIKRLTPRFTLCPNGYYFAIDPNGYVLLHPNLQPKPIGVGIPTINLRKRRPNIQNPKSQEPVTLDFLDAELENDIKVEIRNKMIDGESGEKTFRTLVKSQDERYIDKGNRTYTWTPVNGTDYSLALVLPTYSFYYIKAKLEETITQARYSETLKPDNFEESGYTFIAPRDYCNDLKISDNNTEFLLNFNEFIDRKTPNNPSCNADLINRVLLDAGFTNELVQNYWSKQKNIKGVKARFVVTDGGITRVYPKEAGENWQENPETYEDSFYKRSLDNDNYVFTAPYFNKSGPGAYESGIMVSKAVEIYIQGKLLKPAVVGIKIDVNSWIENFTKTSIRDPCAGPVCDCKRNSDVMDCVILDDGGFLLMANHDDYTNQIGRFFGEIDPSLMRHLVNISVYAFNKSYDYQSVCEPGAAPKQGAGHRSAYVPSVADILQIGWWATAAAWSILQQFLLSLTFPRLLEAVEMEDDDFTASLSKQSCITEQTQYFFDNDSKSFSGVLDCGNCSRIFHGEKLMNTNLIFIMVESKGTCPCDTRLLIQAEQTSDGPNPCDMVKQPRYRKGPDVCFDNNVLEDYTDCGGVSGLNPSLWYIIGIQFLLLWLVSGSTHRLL

Structure (SMILES) | Ki [1, 3] [nM] | Ki [2, 4] [nM] | Ki [1] [nM] | Ki [2] [nM]
CC(N)c1cc(Cc2ccc(O)c(F)c2)n(-c2ccc(Cl)cc2Cl)n1 (stereo in doubt) [Example 63, (S)-4-{[3-(1-Aminoethyl)-1-(2,4-dichlorophenyl)-1H-pyrazol-5-yl]methyl}-2-fluorophenol] | – | – | > 5000 | > 500
CC(N)c1cc(Cc2ccc(O)c(F)c2)n(-c2ccc(Cl)cc2Cl)n1 (stereo in doubt) [Example 64, (R)-4-{[3-(1-Aminoethyl)-1-(2,4-dichlorophenyl)-1H-pyrazol-5-yl]methyl}-2-fluorophenol] | – | – | > 5000 | > 500
COc1ccc(Cc2cc(CN)nn2-c2ccc(Cl)cc2Cl)cc1 [Example 1, [1-(2,4-Dichlorophenyl)-5-(4-methoxybenzyl)-1H-pyrazol-3yl]methanamine] | – | – | < 500 | 100 to 500
COc1ccc(Cc2cc(CN)nn2-c2ccc(OC)cc2Cl)cc1 [Example 4, [1-(2-Chloro-4-methoxyphenyl)-5-(4-methoxybenzyl)-1H-pyrazol-3-yl]methanamine] | – | – | 500 to 3000 | 100 to 500
CCOc1ccc(-n2nc(CN)cc2Cc2ccc(O)cc2)c(Cl)c1 [Example 7, 4-{[3-(Aminomethyl)-1-(2-chloro-4-ethoxyphenyl)-1H-pyrazol-5-yl]methyl}phenol] | – | – | 500 to 3000 | < 100
COc1ccc(Oc2cc(CN)nn2-c2ccc(Cl)cc2Cl)cc1 [Example 17, [1-(2,4-Dichlorophenyl)-5-(4-methoxyphenoxy)-1H-pyrazol-3-yl]methanamine] | – | – | 3000 to 5000 | 100 to 500
CS(=O)(=O)Nc1ccc(Oc2cc(CN)nn2-c2ccc(Cl)cc2Cl)cc1 [Example 18, N-(4-{[3-(Aminomethyl)-1-(2,4-dichlorophenyl)-1H-pyrazol-5-yl]oxy}phenyl)methanesulfonamide] | > 5000 | > 500 | – | –
COc1ccc(Cc2cc(CN(C)C)nn2-c2ccc(Cl)cc2Cl)cc1 [Example 21, 1-[1-(2,4-Dichlorophenyl)-5-(4-methoxybenzyl)-1H-pyrazol-3-yl]-N,N-dimethylmethanamine] | 3000 to 5000 | > 500 | – | –
CNCc1cc(Cc2ccc(OC)cc2)n(-c2ccc(Cl)cc2Cl)n1 [Example 22, 1-[1-{2,4-Dichlorophenyl)-5-(4-methoxybenzyl)-1H-pyrazol-3-yl]-N-methylmethanamine] | 3000 to 5000 | > 500 | – | –
COc1ccc(Cc2cc(C(C)N)nn2-c2ccc(Cl)cc2Cl)cc1 (centres unmarked) [Example 24, 1-[1-(2,4-Dichlorophenyl)-5-(4-methoxybenzyl)-1H-pyrazol-3-yl]ethanamine] | – | – | 500 to 3000 | 100 to 500
COc1ccc(-n2nc(C(C)N)cc2Cc2ccc(O)cc2)c(Cl)c1 (centres unmarked) [Example 27, 4-{[3-(1-Aminoethyl)-1-(2-chloro-4-methoxyphenyl)-1H-pyrazol-5-yl]methyl}phenol] | – | – | < 500 | < 100
COc1ccc(Cl)c(-n2nc(C(C)N)cc2Cc2ccc(O)cc2)c1 (centres unmarked) [Example 28, 4-{[3-(1-Aminoethyl)-1-(2-chloro-5-methoxyphenyl)-1H-pyrazol-5-yl]methyl}phenol] | > 5000 | > 500 | – | –
COc1cc(Cl)ccc1-n1nc(C(C)N)cc1Cc1ccc(O)cc1 (centres unmarked) [Example 29, 4-{[3-(1-Aminoethyl)-1-(4-chloro-2-methoxyphenyl)-1H-pyrazol-5-yl]methyl}phenol] | > 5000 | > 500 | – | –
COc1ccc(Cc2cc(C(C)N)nn2-c2ccc(Cl)cc2Cl)cc1F (centres unmarked) [Example 30] | > 5000 | > 500 | – | –
CCCC(N)c1cc(Cc2ccc(OC)c(F)c2)n(-c2ccc(Cl)cc2Cl)n1 (centres unmarked) [Example 31, 1-[1-(2,4-Dichlorophenyl)-5-(3-fluoro-4-methoxybenzyl)-1H-pyrazol-3-yl]butan-1-amine] | > 5000 | > 500 | – | –
CCC(N)c1cc(Cc2ccc(OC)cc2)n(-c2ccc(Cl)cc2Cl)n1 (centres unmarked) [Example 32, 1-[1-(2,4-Dichlorophenyl)-5-(4-methoxybenzyl)-1H-pyrazol-3-yl]propan-1-amine] | > 5000 | > 500 | – | –
COc1ccc(C(C)(C)c2cc(C(C)N)nn2-c2ccc(Cl)cc2Cl)cc1 (centres unmarked) [Example 33, 1-[1-(2,4-Dichlorophenyl)-5-(2-(4-methoxyphenyl)propan-2-yl)-1H-pyrazol-3-yl]ethanamine] | > 5000 | > 500 | – | –
NCc1cc(Cc2cccc(O)c2)n(-c2ccc(Cl)cc2Cl)n1 [Example 34, 3-{[3-(Aminomethyl)-1-(2,4-dichlorophenyl)-1H-pyrazol-5-yl]methyl}phenol] | – | – | 500 to 3000 | 100 to 500
NCc1cc(Cc2ccccc2)n(-c2ccc(O)cc2)n1 [Example 35, 4-[3-(Aminomethyl)-5-benzyl-1H-pyrazol-1-yl]phenol] | 3000 to 5000 | > 500 | – | –

Now from value to molecule, other results behind:

Ki [1, 3] [nM] | Ki [2, 4] [nM] | Structure (SMILES) | Ki [1] [nM] | Ki [2] [nM]
500 to 3000 | > 500 | COc1ccc(Cc2cc(CN)nn2-c2ccccc2Cl)cc1 [Example 2, [1-(2-Chlorophenyl)-5-(4-methoxybenzyl)-1H-pyrazol-3-yl]methanamine] | – | –
3000 to 5000 | > 500 | COc1ccc(Cc2cc(CN)nn2-c2ccc(Cl)cc2)cc1 [Example 3, [1-(4-Chlorophenyl)-5-(4-methoxybenzyl)-1H-pyrazol-3-yl]methanamine] | – | –
500 to 3000 | > 500 | COc1ccc(Cc2cc(CN)nn2-c2ccc(F)cc2Cl)cc1 [Example 5, [1-(2-Chloro-4-fluorophenyl)-5-(4-methoxybenzyl)-1H-pyrazol-3-yl]methanamine] | – | –
3000 to 5000 | > 500 | COc1ccc(-n2nc(CN)cc2Cc2ccc(O)cc2)cc1 [Example 6, 4-{[3-(Aminomethyl)-1-(4-methoxyphenyl)-1H-pyrazol-5-yl]methyl}phenol] | – | –
500 to 3000 | > 500 | COc1cccc(Cc2cc(CN)nn2-c2ccc(Cl)cc2Cl)c1 [Example 8, [1-(2,4-Dichlorophenyl)-5-(3-methoxybenzyl)-1H-pyrazol-3-yl]methanamine] | – | –
500 to 3000 | > 500 | NCc1cc(Cc2ccccc2)n(-c2ccc(Cl)cc2Cl)n1 [Example 9, [5-Benzyl-1-(2,4-dichlorophenyl)-1H-pyrazol-3-yl]methanamine] | – | –
500 to 3000 | > 500 | COc1ccc(-n2nc(CN)cc2Cc2ccccc2)cc1 [Example 10, [5-Benzyl-1-(4-methoxyphenyl)-1H-pyrazol-3-yl]methanamine] | – | –
500 to 3000 | > 500 | COc1ccc(Cc2cc(CN)nn2CC(C)C)cc1 [Example 11, [1-Isobutyl-5-(4-methoxybenzyl)-1H-pyrazol-3-yl]methanamine] | – | –
500 to 3000 | > 500 | COc1ccc(Cc2cc(CN)nn2Cc2ccc(Cl)cc2)cc1 [Example 12, [1-(4-Chlorobenzyl)-5-(4-methoxybenzyl)-1H-pyrazol-3-yl]methanamine] | – | –
500 to 3000 | > 500 | COc1ccc(Cc2cc(CN)nn2Cc2ccccc2)cc1 [Example 13, [1-Benzyl-5-(4-methoxybenzyl)-1H-pyrazol-3-yl]methanamine] | – | –
500 to 3000 | > 500 | COc1ccc(Cc2cc(CN)nn2Cc2ccccc2Cl)cc1 [Example 14, [1-(2-Chlorobenzyl)-5-(4-methoxybenzyl)-1H-pyrazol-3-yl]methanamine] | – | –
500 to 3000 | > 500 | COc1ccc(Cc2cc(CN)nn2Cc2ccc(Cl)cc2Cl)cc1 [Example 15, [1-(2,4-Dichlorobenzyl)-5-(4-methoxybenzyl)-1H-pyrazol-3-yl]methanamine] | – | –
500 to 3000 | > 500 | COc1ccc(Cc2cc(CN)nn2C(C)c2ccccc2)cc1 (centres unmarked) [Example 16, [5-(4-Methoxybenzyl)-1-(1-phenylethyl)-1H-pyrazol-3-yl]methanamine] | – | –
500 to 3000 | > 500 | COc1ccc(Cc2cc(CN)nn2-c2ccccc2)cc1 [Example 19, [5-(4-Methoxybenzyl)-1-phenyl-1H-pyrazol-3-yl]methanamine] | – | –
3000 to 5000 | > 500 | COc1ccc(Cc2cc(CN)nn2-c2ccccn2)cc1 [Example 20, [5-(4-Methoxybenzyl)-1-(pyridin-2-yl)-1H-pyrazol-3-yl]methanamine] | – | –
500 to 3000 | > 500 | CCNCc1cc(Cc2ccc(OC)cc2)n(CC(C)C)n1 [Example 23, N-{[1-Isobutyl-5-(4-methoxybenzyl)-1H-pyrazol-3-yl]methyl}ethanamine] | – | –
500 to 3000 | > 500 | CCOc1ccc(Cc2cc(C(C)N)nn2-c2ccc(Cl)cc2Cl)cc1 (centres unmarked) [Example 25, 1-[1-(2,4-Dichlorophenyl)-5-(4-ethoxybenzyl)-1H-pyrazol-3-yl]ethanamine] | – | –
500 to 3000 | > 500 | CC(N)c1cc(Cc2ccc(NS(C)(=O)=O)cc2)n(-c2ccc(Cl)cc2Cl)n1 (centres unmarked) [Example 26, N-(4-{[3-(1-Aminoethyl)-1-(2,4-dichlorophenyl)-1H-pyrazol-5-yl]methyl}phenyl)methanesulfonamide] | – | –
